Molecules are shown by their SMILES. Counter-ions that a name gives are not always drawn.

As usually defined, the IC50 is the concentration needed to halve the response being measured.

For one assay, the target named is T1, Falcipain-2 (Plasmodium falciparum, UniProt Q8I6U4).
T1 sequence (Q8I6U4 244-484): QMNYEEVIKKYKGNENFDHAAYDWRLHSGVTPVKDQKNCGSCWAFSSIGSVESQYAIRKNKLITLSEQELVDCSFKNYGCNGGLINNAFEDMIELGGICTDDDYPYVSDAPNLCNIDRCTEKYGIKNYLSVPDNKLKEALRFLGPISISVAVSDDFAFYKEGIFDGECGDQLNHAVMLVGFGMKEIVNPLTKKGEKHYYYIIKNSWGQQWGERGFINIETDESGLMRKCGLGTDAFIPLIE
As to the kind of experiment: falcipain-2 enzymatic assay (fluorogenic substrate H-D-VLR-AFC, endpoint). The conditions noted are these: parasitic recombinant enzyme, pH 5.5, quenched after 60 minutes. The class given is biochemical. How it is done: (§1) 1) Determination of Falcipain-2, Falcipain-3, Vivapain-2, and Cathepsin S Proteolytic Catalytic Activity
(§2) Assays for Falcipain-2, Falcipain-3, and Vivapain-2 are carried out with parasitic recombinant enzymes. Cathepsins S is carried out with human recombinant enzymes. Standard assay conditions for the determination of kinetic constants used a fluorogenic peptide substrate, typically H-D-VLR-AFC (Falcipain-2, Falcipain-3, Vivapain-2) or KQKLR-AMC (Cathepsin S) and are determined in 100 mM sodium acetate, pH 5.5, containing 10 mM DTT and 0.5 mM CHAPS (Falcipain-2, Falcipain-3, Vivapain-2), or 50 mM MES, pH 6.5, containing 0.5 mM CHAPS, 10 mM L-CYS, 5 mM EDTA (Cathepsin S). Stock substrate solutions are prepared at 20 mM in DMSO. The activity assays contained 30 uM substrate (Falcipain-2, Falcipain-3, Vivapain-2), and 30 uM substrate (Cathepsin S). All assays contained 1% DMSO. […] All assays are conducted at ambient temperature as end point assays being quenched after 60 minutes with the exception of Cathepsin S at 90 minutes, with 16.6 uM E-64 in 1% DMSO. Product formation (AFC or AMC) is determined from fluorescence (excitation at 405 nm; emission at 530 nm, AFC, or excitation at 360 nm; emission at 460 nm, AMC) monitored with a LJL Aquest (Molecular Devices) fluorescent plate reader. In the case of kinetic reads (used in mechanism of action studies), the reaction is not quenched but is read in the plate reader every 3 minutes for approximately 90 minutes. In addition, the mechanism of action studies for Falcipain-2 utilize Z-LR-AMC as the substrate. Product formation is determined from the fluorescence of AMC, measured with a LJL Acquest (Molecular Devices) fluorescent plate reader (excitation at 360 nm; emission at 460 nm).
(§3) Potential inhibitors are evaluated using the quenched read (endpoint) method. Assays are carried out in the presence of variable concentrations of test compound. Reactions are initiated by addition of enzyme and substrate to wells containing inhibitor stamped in 100% DMSO. For endpoint assays, the reaction is quenched with the addition of E64. Dose response data is fit to an IC50 curve with preset fitting tools according to equation 1:
(§4) y=a+(b−a)/(1+(10^X/10^C)^d) (1)
(§5) where y is the response at a particular inhibitor concentration x, a is the minimum response value, b is the maximum response value, c is the IC50, and d is the slope of the IC50 curve. Assuming the compound is a competitive inhibitor, the apparent KI can be calculated from IC50, as shown in equation 2: […]

Assay [1] has as its system Plasmodium falciparum parasite. Briefly: whole cell activity against the Plasmodium falciparum parasite. It counts as cell-based. The source says: Equation 7 describes the apparent KI for competitive compounds and was substituted into equations 5 and 6 to generate the relevant binding constants from the fitting routine. In addition, the initial and final velocities were fit to equation 3 to further define the binding mechanism and potency. A complete discussion of this kinetic treatment has been fully described (Morrison et al., Adv. Enzymol. Relat. Areas Mol. Biol., 1988, 61, 201). 2) Determination of Whole Cell Activity Against the Plasmodium falciparum Parasite Compounds can be evaluated for whole cell activity against the Plasmodium falciparum parasite according to the procedure described in Sijwali S, and Rosenthal P. J., (2004) Proceedings of the National Academy of Sciences of the United States of America (PNAS) 101(13), 4384-4389 (see in particular “Measurement of Parasite Growth rates and Inhibitor Sensitivity” on page 4385); IC50 values can be calculated as described in Singh A. and Rosenthal P. J., (2001) Antimicrobial Agents and Chemotherapy 45(3), 949-951 (see in particular page 950, first column); synchronised parasites can be prepared as described in Divo A. A. et al., (1985) Protozool. 32, 59-64.

The next assay has as its target T2, Falcipain-3 (Plasmodium falciparum, UniProt Q8IIL0).
T2 sequence (Q8IIL0 243-492): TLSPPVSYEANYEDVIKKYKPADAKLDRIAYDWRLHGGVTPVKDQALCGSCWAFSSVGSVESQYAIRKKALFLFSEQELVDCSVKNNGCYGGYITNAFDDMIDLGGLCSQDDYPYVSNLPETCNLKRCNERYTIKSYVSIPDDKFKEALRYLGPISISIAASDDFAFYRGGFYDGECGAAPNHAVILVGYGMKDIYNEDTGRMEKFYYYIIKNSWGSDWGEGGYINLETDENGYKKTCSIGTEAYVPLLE
As to the kind of experiment: falcipain-3 enzymatic assay (fluorogenic substrate H-D-VLR-AFC, endpoint). It counts as biochemical. The conditions noted are these: parasitic recombinant enzyme, pH 5.5, quenched after 60 minutes. The procedure:
as §1, §2, §3, §4, §5

Consider `CN1CCN(C2CCN(Cc3ccc(C(=O)NN(CC4CCCC4)c4nc(C#N)nc5c4ncn5C)cc3)CC2)CC1` [Example 1, N′-(2-cyano-9-methyl-9H-purin-6-yl)-N′-(cyclopentylmethyl)-4-({[4-(4-methyl-1-piperazinyl)-1-piperidinyl]methyl}benzohydrazide trifluoroacetate], for which the IC50 was 0.0025 to 0.015 µM on Falcipain-2, 0.015 to 0.15 µM in assay [1] and 0.015 to 0.15 µM at Falcipain-3.

`CN1CCC(CN2CCN(Cc3ccc(C(=O)NN(CC4CCCC4)c4nc(C#N)nc5c4ncn5C)cc3)CC2)CC1` [Example 2, N′-(2-cyano-9-methyl-9H-purin-6-yl)-N′-(cyclopentylmethyl)-4-({4-[(1-methyl-4-piperidinyl)methyl]-1-piperazinyl}methyl)benzohydrazide trifluoroacetate]: the concentration for half-maximal inhibition (IC50) at Falcipain-2 is 0.0025 to 0.015 µM; in assay [1], 0.015 to 0.15 µM; at Falcipain-3, 0.015 to 0.15 µM.

Turning to `CN1CCCC(CN2CCN(Cc3ccc(C(=O)NN(CC4CCCC4)c4nc(C#N)nc5c4ncn5C)cc3)CC2)C1` (centres unmarked) [Example 3, N′-(2-cyano-9-methyl-9H-purin-6-yl)-N′-(cyclopentylmethyl)-4-({4-[(1-methyl-3-piperidinyl)methyl]-1-piperazinyl}methyl)benzohydrazide trifluoroacetate], the figures for the IC50 (on Falcipain-2; in assay [1]) were 0.0025 to 0.015 µM and 0.015 to 0.15 µM, respectively.

As to `CN1CCN(C2CCN(Cc3ccc(C(=O)NN(c4nc(C#N)nc5c4ncn5C)C4CCCC4)cc3)CC2)CC1` [Example 4, N′-(2-cyano-9-methyl-9H-purin-6-yl)-N′-cyclopentyl-4-({[4-(4-methyl-1-piperazinyl)-1-piperidinyl]methyl}benzohydrazide trifluoroacetate], the IC50 fell in the range of 0.0025 to 0.015 µM at Falcipain-2, 0.0025 to 0.015 µM in assay [1] and 0.15 to 0.25 µM on Falcipain-3.

On to `CN1CCC(CN2CCN(Cc3ccc(C(=O)NN(c4nc(C#N)nc5c4ncn5C)C4CCCC4)cc3)CC2)CC1` [Example 5, N′-(2-cyano-9-methyl-9H-purin-6-yl)-N′-cyclopentyl-4-({4-[(1-methyl-4-piperidinyl)methyl]-1-piperazinyl}methyl)benzohydrazide trifluoroacetate], for which the IC50 at Falcipain-2 lay in the range of 0.0025 to 0.015 µM; in assay [1] it was 0.0025 to 0.015 µM; at Falcipain-3 it was 0.25 to 0.4 µM.

Regarding `CN1CCN(C(=O)C2CCN(Cc3ccc(C(=O)NN(c4nc(C#N)nc5c4ncn5C)C4CCCC4)cc3)CC2)CC1` [Example 6, N′-(2-cyano-9-methyl-9H-purin-6-yl)-N′-cyclopentyl-4-({4-[(4-methyl-1-piperazinyl)carbonyl]-1-piperidinyl}methyl)benzohydrazide trifluoroacetate], the IC50 on Falcipain-2 lay in the range of 0.0025 to 0.015 µM; in assay [1], 0.015 to 0.15 µM; at Falcipain-3, 0.15 to 0.25 µM.

`Cn1cnc2c(N(NC(=O)c3ccc(CN4CC(N5CCCC5)C4)cc3)C3CCCC3)nc(C#N)nc21` [Example 7, N′-(2-cyano-9-methyl-9H-purin-6-yl)-N′-cyclopentyl-4-({[3-(1-pyrrolidinyl)-1-azetidinyl]methyl}benzohydrazide trifluoroacetate]: the IC50 was in the range of 0.0025 to 0.015 µM at Falcipain-2, 0.015 to 0.15 µM in assay [1] and 0.25 to 0.4 µM at Falcipain-3.

In the case of `CN1CCN(C2CCN(Cc3ccc(C(=O)NN(c4nc(C#N)nc5c4ncn5C)C4CCCCC4)cc3)CC2)CC1` [Example 8, N′N′-(2-cyano-9-methyl-9H-purin-6-yl)-N′-cyclohexyl-4-({[4-(4-methyl-1-piperazinyl)-1-piperidinyl]methyl}benzohydrazide trifluoroacetate], the IC50 on Falcipain-2 was in the range of 0.001 to 0.0025 µM; in assay [1], 0.0025 to 0.015 µM; at Falcipain-3 it was 0.015 to 0.15 µM.

Take `CN1CCC(CN2CCN(Cc3ccc(C(=O)NN(c4nc(C#N)nc5c4ncn5C)C4CCCCC4)cc3)CC2)CC1` [Example 9, N′-(2-cyano-9-methyl-9H-purin-6-yl)-N′-cyclohexyl-4-({4-[(1-methyl-4-piperidinyl)methyl]-1-piperazinyl}methyl)-benzohydrazide trifluoroacetate]: the IC50 at Falcipain-2 was in the range of 0.0025 to 0.015 µM; in assay [1], 0.0025 to 0.015 µM; on Falcipain-3, 0.015 to 0.15 µM.

Consider `CN1CCN(C(=O)C2CCN(Cc3ccc(C(=O)NN(c4nc(C#N)nc5c4ncn5C)C4CCCCC4)cc3)CC2)CC1` [Example 10, N′-(2-cyano-9-methyl-9H-purin-6-yl)-N′-cyclohexyl-4-({4-[(4-methyl-1-piperazinyl)carbonyl]-1-piperidinyl}methyl)benzohydrazide trifluoroacetate], for which the half-maximal inhibitory concentration (IC50) at Falcipain-2 is 0.0025 to 0.015 µM; in assay [1], 0.0025 to 0.015 µM; at Falcipain-3, 0.015 to 0.15 µM.

`Cn1cnc2c(N(NC(=O)c3ccc(CN4CC(N5CCCC5)C4)cc3)C3CCCCC3)nc(C#N)nc21` [Example 11, N′-(2-cyano-9-methyl-9H-purin-6-yl)-N′-cyclohexyl-4-({[3-(1-pyrrolidinyl)-1-azetidinyl]methyl}benzohydrazide trifluoroacetate]: the IC50 at Falcipain-2 fell in the range of 0.0025 to 0.015 µM; in assay [1], 0.015 to 0.15 µM; at Falcipain-3, 0.015 to 0.15 µM.

For the compound `CN(C)CCCn1cnc2c(N(CC3CCCC3)NC(=O)OC(C)(C)C)nc(C#N)nc21` [Example 12, 1,1-dimethylethyl 2-{2-cyano-9-[3-(dimethylamino)propyl]-9H-purin-6-yl}-2-(cyclopentylmethyl)hydrazinecarboxylate trifluoroacetate], the IC50 fell in the range of 0.001 to 0.0025 µM on Falcipain-2, 0.015 to 0.15 µM in assay [1] and 0.015 to 0.15 µM on Falcipain-3.

Turning to `CN(C)CCn1cnc2c(N(CC3CCCC3)NC(=O)OC(C)(C)C)nc(C#N)nc21` [Example 13, 1,1-dimethylethyl 2-{2-cyano-9-[2-(dimethylamino)ethyl]-9H-purin-6-yl}-2-(cyclopentylmethyl)hydrazinecarboxylate trifluoroacetate], the IC50 on Falcipain-2 was no more than 0.001 µM; in assay [1], 0.015 to 0.15 µM; at Falcipain-3 it was 0.015 to 0.15 µM.

Turning to `CN(C)CCn1cnc2c(N(CC3CCCC3)NC(=O)c3ccc(CN4CCN(C)CC4)cc3)nc(C#N)nc21` [Example 14, N′-{2-cyano-9-[2-(dimethylamino)ethyl]-9H-purin-6-yl}-N′-(cyclopentylmethyl)-4-[(4-methyl-1-piperazinyl)methyl]benzohydrazide trifluoroacetate], the IC50 lay within 0.0025 to 0.015 µM on Falcipain-2, 0.015 to 0.15 µM in assay [1] and 0.015 to 0.15 µM at Falcipain-3.

Turning to `CN(C)CCCn1cnc2c(N(NC(=O)OC(C)(C)C)C3CCCC3)nc(C#N)nc21` [Example 15, 1,1-dimethylethyl 2-{2-cyano-9-[3-(dimethylamino)propyl]-9H-purin-6-yl}-2-cyclopentylhydrazinecarboxylate trifluoroacetate], the IC50 lay in the range of 0.0025 to 0.015 µM on Falcipain-2, 0.015 to 0.15 µM in assay [1] and 0.015 to 0.15 µM on Falcipain-3.

Values taken from US20100105652A1, “PURINES AS CYSTEINE PROTEASE INHIBITORS” (Glaxo Group Limited, priority 2007, published 2010).
